Assay results published in patent US5413991A (Ajinomoto Co., Inc., priority 1991, dated 1995).

Legend:
[1] = test system: endo-type chitinase of insects; conditions: background statement; cited from earlier work
[2] = test system: silkworm-derived chitinase; conditions: background statement; cited from earlier work
[3] = test system: chitinase from Candida albicans; assay: Assay for chitinase inhibitory activity, chitinase from Candida albicans (4MBTC fluorescence); type: biochemical, Candida albicans ATCC 10231; conditions: for Chitinase Inhibitory Activity IC50, C. albicans: bis-Tris buffer pH 6.5, 37° C., 30 minutes, substrate 4MBTC; for Inhibitory activity against chitinase derived from Candida albicans, in words: comparison in words
Experimental: The chitinase from Candida albicans (C. albicans) was prepared by the following method. Firstly, a Sabouraud medium (pH 5.6) composed of 4 g of glucose, 1 g of polypeptone and 100 ml of water was prepared and placed in an Erlenmeyer flask of 500 ml volume. After sterilization at 120° C. for 20 minutes, one platinum loop of slant culture cells of C. albicans ATCC 10231 was inoculated into the medium, and then shake cultured at 37° C. for 2 days to obtain a primary seed mother liquor.
In a second procedure, 1 liter of Sabouraud medium having the same composition as above was prepared. Separately, 100 ml of the medium was added to each of ten 500 ml Erlenmeyer flasks, then the flasks and their contents were sterilized at 120° C. for 20 minutes. Thereafter, 2 ml of the primary seed mother liquor described above was added to each flask. The flask was shaken at 37° C. for 2 days to obtain a secondary seed mother liquor.
In a third procedure, 50 liters of Sabouraud medium having the same composition as described above was prepared and added to a culture tank of 100 liter volume. The tank and its contents were sterilized at 120° C. for 30 minutes. In the tank, 1 liter of the secondary seed mother liquor described above was added. Shake culturing was then conducted at 37° C. for 15 hours. At this stage, the stirring velocity was 140 rpm and the aerial rate was 10 l/min. The resulting culture broth was centrifuged by a sharpless centrifuging machine to recover the cells. The wet weight of the thus obtained cells was 250 g.
The cells were suspended in 800 ml of a buffer for cell homogenization (50 mM bis-Tris, 0.25M saccharose, 1 mM disodium ethylenediaminetetraacetate, pH 6.5). The suspension was twice passed through a Dyno-mill disintegrator (beads: MK-2GX, 0.25-0.5 mm) to disrupt the cells, and the supernatant was recovered. The supernatant was centrifuged at 9000 g for 30 minutes, then further super-centrifuged at 152,000 g for an hour. The supernatant thereof was recovered, and was concentrated to about one-fifth of the volume by ultrafiltration (Toyo Ultrafilter UP-20), having an excluding limiting molecular weight of 20,000. The concentrate was used as the crude chitinase solution from Candida albicans in the assay described in procedure (ii) below.
(§1) In a 20 ml vial bottle, 50 μl of the chitinase solution from Candida albicans prepared as described above,s 50 μl of 100 μg/ml aqueous 4-methylumbelliferyl β-D-N,N',N"-triacetyl-chitotrioside (hereinafterabbreviated as 4MBTC, SIGMA Co.), 75 μl of 50 mM bis-Tris buffer (pH 6.5) and 25 μl of 0.1N acetic acid were added and mixed. The reaction was carried out at 37° C. for 30 minutes. As a blank, the reaction was carried out in an identical manner, substituting 50 mM bis-Tris buffer (pH 6.5) for the enzyme solution. After the reaction, sufficient 0.5M glycine-sodium hydroxide buffer (pH 10.4) was added to make the total volume 5 ml. Then, the fluorescent intensity was determined with a fluorophotometer (manufactured by Hitachi Ltd., MPF-4). The excited wavelength was 350 nm, and the fluorescent wavelength was 400 nm. Chitinase activity was determined using the difference in the fluorescent intensity between the read-out data from the sample containing the enzyme and the blank read-out data.
(§2) In determining the inhibitory activity of AJI9463A, AJI9463B, AJI9463C, and the partially hydrolyzed disaccharides thereof, each compound was dissolved in 0.1N acetic acid, and 25 μl of the compound solution was substituted for the 25 μl of 0.1N acetic acid in the reaction system described above. Further, in determining the inhibitory activity against the chitinases of baker's yeast and Trichoderma sp., the assay was performed by changing the buffer in the reaction system described above from 50 mM bis-Tris buffer (pH 6.5) to 0.1M citrate buffer (pH 3.0) and MclLvanine buffer (pH 5.2), respectively.

[4] = biological target: chitinase from Trichoderma sp. (Chitinase T-1); assay: Assay for chitinase inhibitory activity, chitinase from Trichoderma sp.; type: biochemical; conditions: McIlvaine buffer pH 5.2, substrate 4MBTC
Experimental: The chitinase from Trichoderma sp. was provided for use in the assay described in procedure (ii) below by diluting commercially available Chitinase T-1 (manufactured by Asahi Industry Co., Ltd.) with MclIvanine buffer (obtained by adding 0.2M aqueous disodium hydrogen phosphate to 0.1M aqueous citric acid and adjusting the pH to 5.2) to a concentration of 50 μg/ml.
as §1, §2

[5] = biological target: T1, chitinase from baker's yeast (S cerevisiae) (Saccharomyces cerevisiae, UniProt P29029); assay: Assay for chitinase inhibitory activity, chitinase from baker's yeast; type: biochemical; conditions: 0.1M citrate buffer pH 3.0, substrate 4MBTC
T1 construct: was shaken at 30° C. for 2 hours at 120 spm to extract the enzyme; host or cells: commercial baker's yeast, digitonin extract
T1 sequence (P29029 21-562): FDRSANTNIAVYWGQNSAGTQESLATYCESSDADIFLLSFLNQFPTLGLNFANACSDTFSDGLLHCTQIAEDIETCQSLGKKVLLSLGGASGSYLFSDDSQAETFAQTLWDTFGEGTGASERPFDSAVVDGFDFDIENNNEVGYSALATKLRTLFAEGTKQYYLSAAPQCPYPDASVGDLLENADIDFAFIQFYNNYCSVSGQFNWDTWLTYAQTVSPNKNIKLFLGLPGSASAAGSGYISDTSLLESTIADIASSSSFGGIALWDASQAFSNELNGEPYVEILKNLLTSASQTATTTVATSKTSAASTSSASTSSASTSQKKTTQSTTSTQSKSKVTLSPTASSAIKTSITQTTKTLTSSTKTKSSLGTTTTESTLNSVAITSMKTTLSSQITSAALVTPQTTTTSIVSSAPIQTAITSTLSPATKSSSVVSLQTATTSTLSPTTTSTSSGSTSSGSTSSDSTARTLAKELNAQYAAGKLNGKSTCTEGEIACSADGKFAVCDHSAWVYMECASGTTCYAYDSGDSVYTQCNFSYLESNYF
Experimental: The chitinase from baker's yeast (S cerevisiae) was prepared by the following method. Firstly, 400 g of baker's yeast (manufactured by Kanegafuchi Chemical Industry Co., Ltd.) was suspended in buffer for enzyme extraction (0.1% digitonin: manufactured by Wako Pure Chemical Industry Co., Ltd.), 0.1% β-mercaptoethanol and 2 liters of 25 mM MES (manufactured by Nakarai Chemical Co., Ltd.), and was shaken at 30° C. for 2 hours at 120 spm to extract the enzyme. The extract was centrifuged at 12,000 g for 10 minutes and the supernatant was recovered. The supernatant was concentrated to about one-fifth of the volume by ultrafiltration (UP-20). After 800 ml of sodium citrate buffer (obtained by adding 0.15M aqueous sodium citrate to 0.15M aqueous citric acid, and adjusting the pH to 3.0) was added to the concentrate, the precipitates were removed by centrifugation (0° C., 12,000 g, 10 minutes). The supernatant was again concentrated by ultrafiltration (UP-20) to about 80 ml. The resulting concentrate was used as the chitinase from baker's yeast in the assay described in procedure (ii) below.
as §1, §2

fungi-derived chitinase = conditions: background statement; cited from earlier work
[6] = test system: Candida albicans (ATCC 10231); assay: Effects on growth of Candida albicans; type: cell-based; conditions: 50 μg/ml, Sabouraud dextrose medium, 37° C., 6 and 9 hours after inoculation, microscopic observation
Experimental: Samples of Candida albicans (ATCC 10231) were precultured in Sabouraud dextrose medium. Each of seven large test tubes containing 5 ml of Sabouraud dextrose medium were charged, respectively, with 50 μg/ml of AJI9463A, AJI9463B, AJI9463C, and the partially hydrolyzed disaccharides thereof and medium containing no active inhibitory component. The preculture was then inoculated into the media in the test tubes. The test tubes were capped with a cotton stopper, and incubated at 37° C. at 120 spm. The change in the subsequent culture with respect to time was observed. Observations were made microscopically, sampling the medium at the time when the culture started, and 6 and 9 hours thereafter.

[7] = test system: human leukemia cells K562; assay: Cytotoxicity, human leukemia cells K562; type: cell-based; conditions: 1 mg/ml, 37° C., 4 days, microscopic observation
Experimental: (§3) Six separate samples of human leukemia cells K562, inoculated in RPMI 1640 medium supplemented with 10% calf fetal serum (1×10^5 counts/ml) were prepared, and AJI9463A, AJI9463B, AJI9463C and each of the partially hydrolyzed disaccharides thereof were respectively added thereto, resulting in a concentration of 1 mg/ml. Stationary culture was conducted at 37° C. for 4 days. The human leukemia cell K562 culture was observed microscopically.

[8] = test system: mouse ascites breast cancer cells FM3A; assay: Cytotoxicity, mouse ascites breast cancer cells FM3A; type: cell-based; conditions: 1 mg/ml, 37° C., 4 days, microscopic observation
Experimental: as §3, with “mouse ascites breast cancer” for “human leukemia”, “FM3A,” for “K562,”, “Dulbeccol's modified MEM” for “RPMI 1640”, “cultured mouse ascites breast cancer cells FM3A were” for “human leukemia cell K562 culture was”

| Chitinase Inhibitory Activity IC50, C. albicans [3] [µg/mL] | Chitinase Inhibitory Activity IC50, Trichoderma sp. [4] [µg/mL] | IC50 [5] [µM] | SMILES | Inhibition of endo-type chitinase of insects [1] | Inhibition of silkworm-derived chitinase [2] | Inhibitory activity against fungi-derived chitinase (fungi-derived chitinase) | Fungal growth of Candida albicans [6] | Inhibitory activity against chitinase derived from Candida albicans, in words [3] | Growth inhibition of human leukemia cells K562 (cytotoxicity) [7] | Growth inhibition of mouse ascites breast cancer cells FM3A (cytotoxicity) [8] |
| --- | --- | --- | --- | --- | --- | --- | --- | --- | --- | --- |
| 0.9 | > 50.0 | > 493 | CNC1=NC2C(O)C(O[C@@H]3O[C@H](CO)[C@@H](O)[C@@H](O)[C@H]3NC(C)=O)C(CO)C2O1 (some centres unmarked) |  |  |  |  |  |  |  |
| 3.4 | 0.8 | 49.2 | COC[C@H]1O[C@@H](O[C@H]2[C@H](O)[C@@H](NC(C)=O)[C@H](OC3C(O)C4N=C(N(C)C)OC4C3CO)O[C@@H]2CO)[C@H](NC(C)=O)[C@H](O)[C@@H]1O (some centres unmarked) [AJI9463C] |  |  |  | somewhat inhibited | superior to that of allosamidin and methylallosamidin | No growth inhibition was noted at all | No growth inhibition was noted at all |
| 1.3 | > 50.0 | > 477 | CC(=O)N[C@H]1[C@H](OC2C(O)C3N=C(N(C)C)OC3C2CO)O[C@H](CO)[C@@H](O)[C@@H]1O (some centres unmarked) |  |  |  |  |  |  |  |
| 0.6 | 1.3 | 0.642 | CNC1=NC2C(O)C(O[C@@H]3O[C@H](CO)[C@@H](O[C@@H]4O[C@H](COC)[C@@H](O)[C@@H](O)[C@H]4NC(C)=O)[C@@H](O)[C@H]3NC(C)=O)C(CO)C2O1 (some centres unmarked) [AJI9463A] |  |  |  | somewhat inhibited | most potent inhibitory activity of any known compound | No growth inhibition was noted at all | No growth inhibition was noted at all |
| 1.0 | > 50.0 | > 493 | CNC1=NC2C(O)C(O[C@@H]3O[C@H](CO)[C@@H](O)[C@H](O)[C@H]3NC(C)=O)C(CO)C2O1 (some centres unmarked) |  |  |  |  |  |  |  |
| 0.8 | 1.6 | 0.803 | CNC1=NC2C(O)C(O[C@@H]3O[C@H](CO)[C@@H](O[C@@H]4O[C@H](COC)[C@@H](O)[C@@H](O)[C@H]4NC(C)=O)[C@H](O)[C@H]3NC(C)=O)C(CO)C2O1 (some centres unmarked) [AJI9463B] |  |  |  | somewhat inhibited | superior to that of allosamidin and methylallosamidin | No growth inhibition was noted at all | No growth inhibition was noted at all |

| SMILES | Chitinase Inhibitory Activity IC50, C. albicans [3] [µg/mL] | Chitinase Inhibitory Activity IC50, Trichoderma sp. [4] [µg/mL] | IC50 [5] [µM] | Inhibition of endo-type chitinase of insects [1] | Inhibition of silkworm-derived chitinase [2] | Inhibitory activity against fungi-derived chitinase (fungi-derived chitinase) | Fungal growth of Candida albicans [6] | Inhibitory activity against chitinase derived from Candida albicans, in words [3] | Growth inhibition of human leukemia cells K562 (cytotoxicity) [7] | Growth inhibition of mouse ascites breast cancer cells FM3A (cytotoxicity) [8] |
| --- | --- | --- | --- | --- | --- | --- | --- | --- | --- | --- |
| COC[C@H]1O[C@@H](O[C@H]2[C@@H](O)[C@@H](NC(C)=O)[C@H](OC3C(O)C4N=C(N(C)C)OC4C3CO)O[C@@H]2CO)[C@H](NC(C)=O)[C@H](O)[C@@H]1O (some centres unmarked) [Methylallosamidin, methylallosamidin, reference compound] | 8.8 | 1.2 | 58.4 | strongly inhibit | inhibitors | weak inhibitory activity |  |  |  |  |
| CC(=O)N[C@H]1[C@H](O[C@H]2[C@@H](O)[C@@H](NC(C)=O)[C@H](O[C@H]3[C@H](O)[C@H]4N=C(N(C)C)O[C@H]4[C@@H]3CO)O[C@@H]2CO)O[C@H](CO)[C@@H](O)[C@H]1O [Allosamidin, allosamidin] | 6.2 | 0.8 |  | strongly inhibit | inhibitors | weak inhibitory activity |  |  |  |  |
